Values quoted from earlier work, collected in US20160318862A1, “SYNTHESIS OF DELTA 12-PGJ3 AND RELATED COMPOUNDS” (WILLIAM MARSH RICE UNIVERSITY, priority 2013, published 2016).
Where two headings read alike, the source gives them in different places. Values belong to the molecule of their own block, whether it stands above or below them.

Experiments:
[1] = target: T1, peroxisome proliferator-activated receptor γ (PPARγ) (Homo sapiens, UniProt P37231)
T1 sequence (P37231 1-505): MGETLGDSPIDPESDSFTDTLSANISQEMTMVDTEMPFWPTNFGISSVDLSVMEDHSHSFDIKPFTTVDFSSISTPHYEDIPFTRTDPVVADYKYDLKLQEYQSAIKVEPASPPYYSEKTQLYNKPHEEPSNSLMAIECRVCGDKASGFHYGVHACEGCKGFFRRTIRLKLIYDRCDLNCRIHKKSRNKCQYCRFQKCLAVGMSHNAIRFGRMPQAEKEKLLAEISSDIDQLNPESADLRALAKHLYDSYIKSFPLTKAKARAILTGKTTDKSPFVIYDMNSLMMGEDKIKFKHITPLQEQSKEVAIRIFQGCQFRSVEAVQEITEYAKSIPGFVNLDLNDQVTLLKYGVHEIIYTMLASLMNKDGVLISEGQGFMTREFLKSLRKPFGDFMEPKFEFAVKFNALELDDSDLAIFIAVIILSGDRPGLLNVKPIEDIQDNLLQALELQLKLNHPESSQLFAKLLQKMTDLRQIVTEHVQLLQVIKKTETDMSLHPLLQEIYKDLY

[2] = system: normal hematopoietic stem cells
[3] = system: NF-κB-mediated transcription
tumor cells = conditions: incorporating into tumor cells and transferring into nuclei
AML LSCs [4] = conditions: human AML leukemia samples; reported in U.S. Patent Publication 2013/0005737
[5] = system: mice infected with Friend erythroleukemia virus or those expressing chronic myelogenous leukemia (CML) oncoprotein BCR-abl in the hematopoietic stem cell (HSC) …
AML LSCs [6] = conditions: murine models of AML; reported in U.S. Patent Publication 2013/0005737
[7] = system: leukemia stem cells (LSCs)
p53 = conditions: LSCs and leukemia cells

Structure (SMILES): CCCCC/C=C/C=C1/C(=O)C=C[C@@H]1C/C=C\CCCC(=O)O [15-deoxy-Δ^12,14-PGJ2]
- ligand potency for PPARγ [1]: most potent natural ligand reported to date

- effect on normal hematopoietic stem cells or the differentiation of hematopoietic progenitors [2]: no effect
Structure (SMILES): CC/C=C\C[C@H](O)/C=C/[C@H]1C(=O)C=C[C@@H]1C/C=C\CCCC(=O)O [PGJ3]

Structure (SMILES): O=C(O)CCCC=CCC1C=CC(=O)C1=CCC(O)CC=CCC(F)(F)F (stereo not shown) [compound 3, ω-Trifluoromethyl-Δ^12-PGJ3]
- NF-κB-mediated transcription [3]: Inhibition of the NF-κB-mediated transcription

- topoisomerase activity (topoisomerase): inhibiting topoisomerase
Structure (SMILES): CCCCC[C@H](O)C/C=C1/C(=O)C=C[C@@H]1C/C=C\CCCC(=O)O [Δ^12-PGJ2]
- antitumor effects (tumor cells): strong antitumor effects
- gadd45 promoter activity (gadd45 promoter): activating the gadd45 promoter independently of p53

Structure (SMILES): CC/C=C\C[C@H](O)C/C=C1/C(=O)C=C[C@@H]1C/C=C\CCCC(=O)O [Δ^12-PGJ3]
- targeting of AML LSCs by inducing apoptosis (AML LSCs [4]): effectively target AML LSCs by inducing apoptosis
- hematological parameters, splenic histology and survival ([5]; intraperitoneal administration): completely restored normal hematological parameters, splenic histology, and enhanced the survival
- development of leukemia ([5]; two murine models of leukemia): alleviates the development of leukemia
- targeting of AML LSCs by inducing apoptosis (AML LSCs [6]): effectively target AML LSCs by inducing apoptosis
- eradication of LSCs ([7]; in vivo, donor cells from treated mice unable to cause leukemia in secondary transplants): completely eradicated LSCs in vivo
- apoptosis of leukemia stem cells ([7]; mice spleen and bone marrow): selectively targets and induces apoptosis of leukemia stem cells
- expression of p53 (p53): inducing the expression of p53
